# From paper PMC8292346, “Dysfunction of the key ferroptosis-surveilling systems hypersensitizes mice to tubular necrosis during acute kidney injury” (Nature Communications, 2021)
# Where “and” joins values, the source holds several entries; their conditions need not be identical. Equal values may be shown once.
# Key:
# D1(h) = D1(h) (Homo sapiens, UniProt P21728); experiment: Off-target radioligand binding screen; conditions: read-out: D1(h) ($): inhibition of radioligand binding
# β2(h) = β2(h) (Homo sapiens, UniProt P07550); experiment: Off-target radioligand binding screen; conditions: read-out: β2(h) ($): inhibition of radioligand binding
# Sequence of β2(h) (P07550 whole entry): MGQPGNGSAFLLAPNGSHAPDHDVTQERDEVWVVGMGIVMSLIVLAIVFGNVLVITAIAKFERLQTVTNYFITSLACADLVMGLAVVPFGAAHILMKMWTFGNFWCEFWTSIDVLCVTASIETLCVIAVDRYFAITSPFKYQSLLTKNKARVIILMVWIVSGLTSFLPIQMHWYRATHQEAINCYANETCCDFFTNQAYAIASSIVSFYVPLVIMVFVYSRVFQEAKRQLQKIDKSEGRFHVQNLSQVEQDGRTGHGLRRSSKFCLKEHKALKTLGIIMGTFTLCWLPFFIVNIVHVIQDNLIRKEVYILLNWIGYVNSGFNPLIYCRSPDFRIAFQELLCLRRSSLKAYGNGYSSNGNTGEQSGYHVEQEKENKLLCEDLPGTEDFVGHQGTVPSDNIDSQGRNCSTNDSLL
# [1] = target: Potassium Channel hERG (human) (Homo sapiens, UniProt Q12809); experiment: Off-target radioligand binding screen; conditions: Nec-1f 10 µM
# Sequence of Potassium Channel hERG (human) (Q12809 whole entry): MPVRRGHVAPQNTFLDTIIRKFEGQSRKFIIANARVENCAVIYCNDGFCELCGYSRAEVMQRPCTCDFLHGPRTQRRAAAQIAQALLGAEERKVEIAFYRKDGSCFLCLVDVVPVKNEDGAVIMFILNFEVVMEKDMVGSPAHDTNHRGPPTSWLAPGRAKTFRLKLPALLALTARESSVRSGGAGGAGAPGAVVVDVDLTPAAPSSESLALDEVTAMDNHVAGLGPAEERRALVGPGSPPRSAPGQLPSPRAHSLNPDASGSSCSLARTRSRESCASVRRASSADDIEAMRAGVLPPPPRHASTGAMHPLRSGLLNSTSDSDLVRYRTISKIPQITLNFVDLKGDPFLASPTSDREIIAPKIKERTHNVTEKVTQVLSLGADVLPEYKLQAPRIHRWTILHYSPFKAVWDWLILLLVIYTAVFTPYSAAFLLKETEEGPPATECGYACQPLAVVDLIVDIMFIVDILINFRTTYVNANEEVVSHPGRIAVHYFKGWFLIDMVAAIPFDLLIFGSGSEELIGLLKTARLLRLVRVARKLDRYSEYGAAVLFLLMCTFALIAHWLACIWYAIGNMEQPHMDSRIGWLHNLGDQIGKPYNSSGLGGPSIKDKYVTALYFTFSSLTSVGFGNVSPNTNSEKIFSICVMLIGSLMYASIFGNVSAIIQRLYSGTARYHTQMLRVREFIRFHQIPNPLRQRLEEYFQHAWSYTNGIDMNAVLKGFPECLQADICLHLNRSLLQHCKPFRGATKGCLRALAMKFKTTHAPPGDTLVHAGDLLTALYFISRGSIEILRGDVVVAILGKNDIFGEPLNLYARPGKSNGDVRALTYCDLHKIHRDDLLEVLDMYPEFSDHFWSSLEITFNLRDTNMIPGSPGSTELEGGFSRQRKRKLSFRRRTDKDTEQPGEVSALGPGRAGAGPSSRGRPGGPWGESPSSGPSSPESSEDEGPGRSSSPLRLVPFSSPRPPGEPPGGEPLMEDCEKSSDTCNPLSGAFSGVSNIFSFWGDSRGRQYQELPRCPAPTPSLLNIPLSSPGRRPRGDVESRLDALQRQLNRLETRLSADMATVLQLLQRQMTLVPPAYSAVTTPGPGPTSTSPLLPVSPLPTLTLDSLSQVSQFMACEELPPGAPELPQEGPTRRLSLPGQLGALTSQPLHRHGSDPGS
# GR (h) = GR (h) (Homo sapiens, UniProt P04150); experiment: Off-target radioligand binding screen; conditions: read-out: GR (h) (#): inhibition of radioligand binding, Nec-1f 10 µM
# Sequence of GR (h) (P04150 whole entry): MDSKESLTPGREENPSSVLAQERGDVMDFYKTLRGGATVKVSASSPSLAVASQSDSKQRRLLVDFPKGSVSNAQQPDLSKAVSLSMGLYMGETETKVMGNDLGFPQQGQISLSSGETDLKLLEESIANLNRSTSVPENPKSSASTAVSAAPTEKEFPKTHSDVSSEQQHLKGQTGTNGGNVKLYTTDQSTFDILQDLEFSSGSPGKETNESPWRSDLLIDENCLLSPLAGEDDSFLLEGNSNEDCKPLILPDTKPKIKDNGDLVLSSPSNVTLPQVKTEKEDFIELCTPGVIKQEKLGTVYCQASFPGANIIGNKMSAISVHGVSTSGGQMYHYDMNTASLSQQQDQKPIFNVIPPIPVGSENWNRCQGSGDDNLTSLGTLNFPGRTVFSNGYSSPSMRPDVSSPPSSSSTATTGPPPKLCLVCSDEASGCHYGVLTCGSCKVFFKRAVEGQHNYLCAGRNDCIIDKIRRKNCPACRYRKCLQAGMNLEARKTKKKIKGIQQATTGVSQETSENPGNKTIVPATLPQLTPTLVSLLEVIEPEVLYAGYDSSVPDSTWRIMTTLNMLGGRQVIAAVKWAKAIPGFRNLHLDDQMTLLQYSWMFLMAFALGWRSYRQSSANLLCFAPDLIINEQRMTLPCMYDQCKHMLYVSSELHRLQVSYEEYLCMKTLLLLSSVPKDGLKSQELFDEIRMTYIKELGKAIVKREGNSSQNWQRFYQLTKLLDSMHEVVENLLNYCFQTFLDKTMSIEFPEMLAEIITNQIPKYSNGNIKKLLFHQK
# ETA(h) = ETA(h) (Homo sapiens, UniProt P25101); experiment: Off-target radioligand binding screen; conditions: read-out: ETA(h) (#): inhibition of radioligand binding
# Sequence of ETA(h) (P25101 21-427): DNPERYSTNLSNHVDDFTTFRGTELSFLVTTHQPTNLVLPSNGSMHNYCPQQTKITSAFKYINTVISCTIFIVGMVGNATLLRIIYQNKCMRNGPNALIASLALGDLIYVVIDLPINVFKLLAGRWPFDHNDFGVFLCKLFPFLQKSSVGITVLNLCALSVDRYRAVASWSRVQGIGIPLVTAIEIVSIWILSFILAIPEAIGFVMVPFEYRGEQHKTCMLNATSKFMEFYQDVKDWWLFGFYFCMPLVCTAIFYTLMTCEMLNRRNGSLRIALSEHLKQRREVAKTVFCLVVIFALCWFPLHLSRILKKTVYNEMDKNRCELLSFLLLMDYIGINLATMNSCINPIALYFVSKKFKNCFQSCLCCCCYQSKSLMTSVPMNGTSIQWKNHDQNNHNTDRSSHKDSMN
# KV channel = experiment: Off-target radioligand binding screen; conditions: Nec-1f 10 µM
# α1A(h) = α1A(h) (Homo sapiens, UniProt P35348); experiment: Off-target radioligand binding screen; conditions: read-out: α1A(h) ($): inhibition of radioligand binding
# Sequence of α1A(h) (P35348 whole entry): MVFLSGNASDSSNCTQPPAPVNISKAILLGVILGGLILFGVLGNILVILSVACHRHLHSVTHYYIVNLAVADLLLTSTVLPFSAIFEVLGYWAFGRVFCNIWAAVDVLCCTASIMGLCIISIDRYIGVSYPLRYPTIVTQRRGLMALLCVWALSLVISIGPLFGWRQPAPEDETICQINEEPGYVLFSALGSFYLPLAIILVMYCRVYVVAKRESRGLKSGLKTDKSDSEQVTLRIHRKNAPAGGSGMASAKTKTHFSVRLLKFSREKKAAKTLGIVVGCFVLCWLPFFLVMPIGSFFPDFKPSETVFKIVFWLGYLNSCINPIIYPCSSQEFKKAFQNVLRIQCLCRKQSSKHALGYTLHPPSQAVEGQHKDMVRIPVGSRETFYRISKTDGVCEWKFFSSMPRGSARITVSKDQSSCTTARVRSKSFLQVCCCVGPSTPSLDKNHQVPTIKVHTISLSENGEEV
# β1(h) = β1(h) (Homo sapiens, UniProt P08588); experiment: Off-target radioligand binding screen; conditions: read-out: β1(h) (#): inhibition of radioligand binding
# C57BL/6N mice [2] = experiment: Acute oxalate nephropathy (CaOx-induced AKI); assay type: in vivo, mouse; conditions: sodium oxalate, 1.65 mg/kg Nec-1f, individual animals
# V1a(h) = V1a(h) (Homo sapiens, UniProt P37288); experiment: Off-target radioligand binding screen; conditions: read-out: V1a(h) (#): inhibition of radioligand binding
# Sequence of V1a(h) (P37288 whole entry): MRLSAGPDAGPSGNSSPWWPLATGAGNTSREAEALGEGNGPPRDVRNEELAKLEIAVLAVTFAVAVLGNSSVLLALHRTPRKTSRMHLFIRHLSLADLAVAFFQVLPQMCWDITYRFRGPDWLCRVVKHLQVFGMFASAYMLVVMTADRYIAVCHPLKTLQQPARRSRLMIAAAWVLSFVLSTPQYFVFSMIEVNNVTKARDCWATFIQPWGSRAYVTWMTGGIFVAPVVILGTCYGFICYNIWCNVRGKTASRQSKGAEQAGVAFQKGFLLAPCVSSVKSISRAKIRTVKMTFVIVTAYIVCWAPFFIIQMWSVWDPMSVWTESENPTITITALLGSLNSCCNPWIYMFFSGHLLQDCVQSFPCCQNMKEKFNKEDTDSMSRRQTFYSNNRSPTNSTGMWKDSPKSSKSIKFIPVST
# C57BL/6N mice [3] = experiment: Acute oxalate nephropathy (CaOx-induced AKI); assay type: in vivo, mouse
# Method: C57BL/6N mice were procured from Charles River Laboratories (Sulzfeld, Germany) and co-housed in groups of four in filter top cages with unlimited access to food and water. Cages, nestlets, food, and water were sterilized by autoclaving before use. Mice received a single intraperitoneal (i.p.) injection of 100 mg/kg sodium oxalate (Santa Cruz Biotechnology) and 3% sodium oxalate in drinking water and kidneys were harvested after 24 h. […] Blood and kidneys were collected at sacrifice by cervical dislocation. The middle section of each kidney was fixed for 24 h in formalin to be embedded in paraffin for histological analysis. Intrarenal crystal precipitations were quantified by Pizzolato staining. The experimental procedure was approved by the Regierung von Oberbayern, München, Germany (ROB-55.2-2532.Vet_02-18-127).
# The tubular injury was scored by detecting the percentage of necrotic structures, dilated tubules, casts and cellular infiltrates per HPF. To do so a grid with a raster size of 2.5% of the total image area was imposed on top of each image and the number of squares covering either of the histopathological features was counted individually or as a composite (summary score). Pizzolato’s staining visualized calcium oxalate crystals and crystal deposit formation in the kidney was evaluated the following: no deposits = 0 point; crystals in papillary tip = 1 point; crystals in cortical medullary junction = 2 points; crystals in cortex = 3 points.
# A TUNEL kit (Cell death detection kit, Roche) was used to quantify the number of cells with DNA strand breaks per HPF. The green fluorescent area was measured and the number of stained cells per slide was counted.
# [4] = target: indoleamine 2,3-dioxygenase (IDO) (Homo sapiens, UniProt P14902); experiment: IDO assay (formation of N-formyl-kynurenine from L-tryptophan); conditions: read-out: IDO (h): inhibition
# Sequence of indoleamine 2,3-dioxygenase (IDO) (P14902 whole entry): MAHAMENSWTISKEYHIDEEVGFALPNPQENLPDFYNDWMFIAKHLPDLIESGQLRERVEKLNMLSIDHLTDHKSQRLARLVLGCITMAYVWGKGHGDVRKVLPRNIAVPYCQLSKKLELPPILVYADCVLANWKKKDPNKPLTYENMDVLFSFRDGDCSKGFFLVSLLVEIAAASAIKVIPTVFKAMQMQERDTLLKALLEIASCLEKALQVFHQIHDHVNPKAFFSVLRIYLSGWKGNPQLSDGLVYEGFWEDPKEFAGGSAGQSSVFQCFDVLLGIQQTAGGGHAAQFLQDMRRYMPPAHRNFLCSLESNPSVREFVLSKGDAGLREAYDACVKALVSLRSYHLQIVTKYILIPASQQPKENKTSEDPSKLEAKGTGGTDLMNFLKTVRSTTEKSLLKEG
# CB1(h) = CB1(h) (Homo sapiens, UniProt P21554); experiment: Off-target radioligand binding screen; conditions: read-out: CB1(h) (#): inhibition of radioligand binding
# M2 (h) = M2 (h) (Homo sapiens, UniProt P08172); experiment: Off-target radioligand binding screen; conditions: read-out: M2 (h) ($): inhibition of radioligand binding
# H2(h) = H2(h) (Homo sapiens, UniProt P25021); experiment: Off-target radioligand binding screen; conditions: read-out: H2(h) ($): inhibition of radioligand binding
# Sequence of H2(h) (P25021 whole entry): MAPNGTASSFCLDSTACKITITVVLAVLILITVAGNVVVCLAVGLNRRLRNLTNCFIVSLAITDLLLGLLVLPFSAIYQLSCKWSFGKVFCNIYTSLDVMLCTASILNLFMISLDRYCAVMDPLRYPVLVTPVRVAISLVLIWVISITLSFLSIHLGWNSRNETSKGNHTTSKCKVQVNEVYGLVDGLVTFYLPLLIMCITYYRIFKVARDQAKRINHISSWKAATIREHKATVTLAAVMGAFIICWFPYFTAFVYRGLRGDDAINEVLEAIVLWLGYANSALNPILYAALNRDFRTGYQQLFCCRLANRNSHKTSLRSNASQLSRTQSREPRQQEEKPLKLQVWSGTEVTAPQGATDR
# BZD (central) = experiment: Off-target radioligand binding screen; conditions: Nec-1f 10 µM
# [5] = system: Ca2+ channel (L, dihydropyridine site); experiment: Off-target radioligand binding screen; conditions: Nec-1f 10 µM
# C57Bl/6 N mice = experiment: Bilateral kidney ischemia-reperfusion injury, moderate model (30 min ischemia); assay type: in vivo, mouse
# Text: Otherwise, the two models are identical.
# [6] = 24 h after CaOx, 1.65 mg/kg Nec-1f, individual animals, 1.65 mg/kg
# [7] = Nec-1f - sham, individual animals
# [8] = Nec-1f, 48 h after onset of reperfusion, individual animals
# [9] = Nec-1f, 72 h after onset of reperfusion, individual animals
# [10] = kidney IRI, 1.65 mg/kg i.p. 15 min before
# [11] = mice, bilateral kidney IRI, Nec-1f 1.65 mg/kg i.p. 15 min before, individual animals
# [12] = mice, kidney IRI, Nec-1f, individual animals
# Sequence of D1(h) (P21728 whole entry): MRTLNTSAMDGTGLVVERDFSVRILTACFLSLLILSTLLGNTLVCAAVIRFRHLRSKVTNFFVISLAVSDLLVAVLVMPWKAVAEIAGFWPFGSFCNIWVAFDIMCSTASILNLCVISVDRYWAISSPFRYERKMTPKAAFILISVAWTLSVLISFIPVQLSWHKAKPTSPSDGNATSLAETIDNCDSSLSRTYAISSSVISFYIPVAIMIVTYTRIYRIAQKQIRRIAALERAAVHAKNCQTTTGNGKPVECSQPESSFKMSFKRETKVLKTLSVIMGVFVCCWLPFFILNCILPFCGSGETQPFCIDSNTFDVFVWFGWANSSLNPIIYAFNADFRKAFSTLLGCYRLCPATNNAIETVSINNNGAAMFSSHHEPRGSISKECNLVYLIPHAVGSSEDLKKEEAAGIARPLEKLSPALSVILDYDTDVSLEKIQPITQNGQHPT
smiles,measurement,setting,value
CN1C(=O)C(Cc2c[nH]c3c(Cl)cccc23)NC1=S (centres unmarked) [Nec-1f],inhibition at 10 µM,D1(h),2.3%
same,inhibition at 10 µM,β2(h),1.4%
same,Potassium Channel hERG (human)- [3H] Dofetilide: inhibition of radioligand binding,[1],-2.7%
same,inhibition at 10 µM,GR (h),≥ 50%
same,inhibition at 10 µM,ETA(h),0.9%
same,KV channel ($): inhibition of radioligand binding,KV channel,1.7%
same,inhibition at 10 µM,α1A(h),4.8%
same,inhibition at 10 µM,β1(h),3.7%
same,CaOx deposition score [1-10] (Pizzolato staining),C57BL/6N mice [2],3 and 6 and 4
same,inhibition at 10 µM,V1a(h),29.3%
same,CaOx crystal deposition vs vehicle,C57BL/6N mice [3]; 1.65 mg/kg body weight,comparable in both groups
same,Tubular injury vs vehicle,C57BL/6N mice [3]; 1.65 mg/kg body weight,reduced tubular injury
same,Serum creatinine,C57BL/6N mice [3]; [6],75 µmol/L and 84 µmol/L and 73 µmol/L and 71 µmol/L and 67 µmol/L and 78 µmol/L and 89 µmol/L and 69 µmol/L
same,Serum urea,C57BL/6N mice [3]; [6],70.6 mmol/L and 52 mmol/L and 57.6 mmol/L and 47.8 mmol/L and 51.8 mmol/L and 64.8 mmol/L and 59.8 mmol/L
same,Number of TUNEL-positive cells vs vehicle,C57BL/6N mice [3]; CaOx,significantly decreased
same,Serum creatinine vs vehicle,"C57BL/6N mice [3]; CaOx, 1.65 mg/kg",lower concentrations
same,Serum urea vs vehicle,"C57BL/6N mice [3]; CaOx, 1.65 mg/kg",lower concentrations
same,TUNEL,"C57BL/6N mice [3]; kidneys 24 h after onset of CaOx treatment, Nec-1f, individual animals",12.5 positive cells per HPF and 23.5 positive cells per HPF and 14 positive cells per HPF and 17 positive cells per HPF and 9.5 positive cells per HPF and 16 positive cells per HPF and 15 positive cells per HPF
same,Tubular injury (PAS),"C57BL/6N mice [3]; sodium oxalate, 1.65 mg/kg Nec-1f, individual animals, 1.65 mg/kg",5.4 % area per HPF and 19.2 % area per HPF and 9 % area per HPF and 17.2 % area per HPF and 7.8 % area per HPF and 11.7 % area per HPF and 12.7 % area per HPF
same,inhibition at 10 µM,[4],2%
same,inhibition at 10 µM,CB1(h),-24.7%
same,inhibition at 10 µM,M2 (h),-1.7%
same,inhibition at 10 µM,H2(h),-27.4%
same,BZD (central) (#): inhibition of radioligand binding,BZD (central),-4.6%
same,"Ca2+ channel (L, dihydropyridine site) ($): inhibition of radioligand binding",[5],40%
same,Serum creatinine,C57Bl/6 N mice; [7],23 µmol/L and 17 µmol/L
same,Serum urea,C57Bl/6 N mice; [7],5.5 mmol/L and 5.6 mmol/L
same,Serum creatinine,C57Bl/6 N mice; [8],28 µmol/L and 95 µmol/L and 52 µmol/L and 60 µmol/L and 40 µmol/L and 74 µmol/L and 33 µmol/L and 35 µmol/L and 39 µmol/L
same,Serum urea,C57Bl/6 N mice; [8],19.1 mmol/L and 76 mmol/L and 75 mmol/L and 43.6 mmol/L and 50.1 mmol/L and 32.1 mmol/L and 57 mmol/L and 22.5 mmol/L and 16.7 mmol/L and 34.1 mmol/L and 24.8 mmol/L
same,Serum creatinine,C57Bl/6 N mice; [9],79 µmol/L and 31 µmol/L and 63 µmol/L and 46 µmol/L and 53 µmol/L and 44 µmol/L
same,Serum urea,C57Bl/6 N mice; [9],30.9 mmol/L and 8.8 mmol/L and 20.2 mmol/L and 18.9 mmol/L and 37.3 mmol/L and 16.4 mmol/L
same,4HNE staining of renal tissue,C57Bl/6 N mice; [10],attenuated
same,Infiltration of macrophages (F4/80) in the renal medulla,C57Bl/6 N mice; [10],significantly less infiltration
same,Serum creatinine vs vehicle,C57Bl/6 N mice; [10],lower than in the vehicle-treated mice
same,Serum urea vs vehicle,C57Bl/6 N mice; [10],lower than in the vehicle-treated mice
same,Tubular damage vs vehicle,C57Bl/6 N mice; [10],lower than in the vehicle-treated mice
same,"4HNE score, arbitrary [0-3] (sheet FigS2d)","C57Bl/6 N mice; kidney IRI, column headed Nec-1f",1.6 and 1.4
same,"4HNE staining score, arbitrary [0-3]",C57Bl/6 N mice; [11],0.6 and 1.6 and 1.8 and 0.8 and 1.2
same,"Tubular damage score, arbitrary [0-10]",C57Bl/6 N mice; [11],5 and 7 and 4
same,"F4/80 positivity, quantitative (Fig6i)",C57Bl/6 N mice; [12],8.8 cells/field and 7.8 cells/field and 20.3 cells/field and 16.2 cells/field and 20.8 cells/field
same,"F4/80 positivity, quantitative (Fig6h)",C57Bl/6 N mice; [12],3.45 cells/field and 6.077 cells/field and 9.25 cells/field and 7.125 cells/field and 9.0625 cells/field
